In patent US12577257B2, “Heterocyclic compounds” (Hoffmann-La Roche Inc., priority 2018, dated 2026):

target: T1, MAGL (recombinant wild-type) (Homo sapiens, UniProt Q99685); assay: 4-NPA assay: MAGL hydrolysis of 4-nitrophenylacetate, absorbance at 405 nm; assay type: biochemical; conditions: footnote [b]: measured in 4-NPA assay
T1 sequence (Q99685 1-303): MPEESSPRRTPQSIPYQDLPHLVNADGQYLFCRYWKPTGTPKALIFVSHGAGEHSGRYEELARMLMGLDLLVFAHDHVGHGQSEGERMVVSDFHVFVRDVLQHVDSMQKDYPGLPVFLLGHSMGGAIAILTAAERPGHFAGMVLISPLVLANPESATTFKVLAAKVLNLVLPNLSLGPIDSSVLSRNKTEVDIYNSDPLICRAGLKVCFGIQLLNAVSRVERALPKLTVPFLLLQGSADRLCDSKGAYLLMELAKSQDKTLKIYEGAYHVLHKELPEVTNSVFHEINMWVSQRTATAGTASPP
Experimental: (§1) Compounds were profiled for MAGL inhibitory activity by measuring the enzymatic activity of MAGL by following the hydrolysis of 4-nitrophenylacetate resulting in 4-nitrophenol, which absorbs at 405-412 nm (G. G. Muccioli, G. Labar, D. M. Lambert, Chem. Bio. Chem. 2008, 9, 2704-2710). This assay is hereinafter abbreviated “4-NPA assay”.
(§2) The 4-NPA assay was carried out in 384 well assay plates (black with clear bottom, non-binding surface treated, Corning Ref. 3655) in a total volume of 40 μL. Compound dilutions were made in 100% DMSO (VWR Chemicals 23500.297) in a polypropylene plate in 3-fold dilution steps to give a final concentration range in the assay from 25 μM to 1.7 nM. 1 μL compound dilutions (100% DMSO) were added to 19 μL MAGL (recombinant wild-type) in assay buffer (50 mM TRIS (GIBCO, 15567-027), 1 mM EDTA (Fluka, 03690-100 ml)). The plate was shaked for 1 min at 2000 rpm (Variomag Teleshake) and then incubated for 15 min at RT. To start the reaction, 20 μL 4-Nitrophenylacetate (Sigma N-8130) in assay buffer with 6% EtOH was added. The final concentrations in the assay were 1 nM MAGL and 300 μM 4-Nitrophenylacetate. After shaking (1 min, 2000 rpm) and 5 min incubation at RT, the absorbance at 405 nm was measured for a first time (Molecular Devices, SpectraMax Paradigm). A second measurement was then done after incubation for 80 min at RT. From the two measurements, the slope was calculated by subtracting the first from the second measurement.

SMILES | IC50 [nM]
O=C1CO[C@H]2CCN(C(=O)N3CCC4(C3)CN(C(c3ccccc3)c3ccccc3)C4)C[C@H]2N1 (racemic) [Example 20, rac-(4aR,8aS)-6-(2-Benzhydryl-2,6-diazaspiro[3.4]octane-6-carbonyl)hexahydro-2H-pyrido[4,3-b][1,4]oxazin-3(4H)-one] | 2690
CC(C)(C)OC(=O)N1CC2(CCN(C(=O)N3CC[C@@H]4OCC(=O)N[C@@H]4C3)C2)C1 (racemic) [Int-1, rac-tert-Butyl 6-((4aR,8aS)-3-oxooctahydro-2H-pyrido[4,3-b][1,4]oxazine-6-carbonyl)-2,6-diazaspiro[3.4]octane-2-carboxylate] | 539
O=C1CO[C@H]2CCN(C(=O)N3CCC4(CC3)CN(S(=O)(=O)c3ccccc3)C4)C[C@H]2N1 [Example 39, (4aR,8aS)-6-(2-(Phenylsulfonyl)-2,7-diazaspiro[3.5]nonane-7-carbonyl)hexahydro-2H-pyrido[4,3-b][1,4]oxazin-3(4H)-one] | 599
O=C1CO[C@H]2CCN(C(=O)N3CCC4(CC3)CN(S(=O)(=O)c3ccc(F)cc3)CCO4)C[C@H]2N1 (racemic) [Example 21, rac-(4aR,8aS)-6-(4-((4-Fluorophenyl)sulfonyl)-1-oxa-4,9-diazaspiro[5.5]undecane-9-carbonyl)hexahydro-2H-pyrido[4,3-b][1,4]oxazin-3(4H)-one] | 836

target: T2, MAGL (Homo sapiens, UniProt Q99685); assay: MAGL inhibition, Table 1 values with no assay marker (2-AG or 4-NPA assay not stated); assay type: biochemical; conditions: not given
T2 sequence (Q99685 1-303): T1 sequence (Q99685 1-303)
Experimental: as §1, §2
Alternatively, compounds were profiled for MAGL inhibitory activity by determining the enzymatic activity by following the hydrolysis of the natural substrate 2-arachidonoylglycerol resulting in arachidonic acid, which can be followed by mass spectrometry. This assay is hereinafter abbreviated “2-AG assay”.
The 2-AG assay was carried out in 384 well assay plates (PP, Greiner Cat #784201) in a total volume of 20 μL. Compound dilutions were made in 100% DMSO (VWR Chemicals 23500.297) in a polypropylene plate in 3-fold dilution steps to give a final concentration range in the assay from 12.5 μM to […]. 0.25 μL compound dilutions (100% DMSO) were added to 9 μL MAGL in assay buffer (50 mM TRIS (GIBCO, 15567-027), 1 mM EDTA (Fluka, 03690-100 ml), 0.01% (v/v) Tween. After shaking, the plate was incubated for 15 min at RT. To start the reaction, 10 μL 2-arachidonoylglycerol in assay buffer was added. The final concentrations in the assay was […] and 8 μM 2-arachidonoylglycerol. After shaking and 30 min incubation at RT, the reaction was quenched by the addition of 40 μL of acetonitrile containing 4 μM of d8-arachidonic acid. The amount of arachidonic acid was traced by an online SPE system (Agilent Rapidfire) coupled to a triple quadrupole mass spectrometer (Agilent 6460). A C18 SPE cartridge (G9205A) was used in an acetonitrile/water liquid setup. The mass spectrometer was operated in negative electrospray mode following the mass transitions 303.1→259.1 for arachidonic acid and 311.1→267.0 for d8-arachidonic acid. The activity of the compounds was calculated based on the ratio of intensities [arachidonic acid/d8-arachidonic acid].

SMILES | IC50 [nM]
COc1ccc(N2CC3(CCN(C(=O)N4CC[C@@H]5OCC(=O)N[C@@H]5C4)C3)C2)cc1C [Example 62, (4aR,8aS)-6-(2-(4-methoxy-3-methylphenyl)-2,6-diazaspiro[3.4]octane-6-carbonyl)hexahydro-2H-pyrido[4,3-b][1,4]oxazin-3(4H)-one] | 58.8
O=C1CO[C@H]2CCN(C(=O)N3CC4(CC(Cc5ccc(F)cc5Cl)C4)C3)C[C@H]2N1 [Example 50, (4aR,8aS)-6-(6-(2-chloro-4-fluorobenzyl)-2-azaspiro[3.3]heptane-2-carbonyl)hexahydro-2H-pyrido[4,3-b][1,4]oxazin-3(4H)-one] | 0.04
O=C1CO[C@H]2CCN(C(=O)N3CCC4(C3)CN(c3cccc(C(F)(F)F)c3)C4)C[C@H]2N1 [Example 58, (4aR,8aS)-6-(2-(3-(trifluoromethyl)phenyl)-2,6-diazaspiro[3.4]octane-6-carbonyl)hexahydro-2H-pyrido[4,3-b][1,4]oxazin-3(4H)-one] | 70.7
COc1cccc(F)c1CC1CC2(C1)CN(C(=O)N1CC[C@@H]3OCC(=O)N[C@@H]3C1)C2 [Example 71, (4aR,8aS)-6-(6-(2-fluoro-6-methoxybenzyl)-2-azaspiro[3.3]heptane-2-carbonyl)hexahydro-2H-pyrido[4,3-b][1,4]oxazin-3(4H)-one] | 0.1
